Measurements: patent US11766426B2, “Semi-solid topical composition containing pirfenidone and modified diallyl disulfide oxide (M-DDO) for eliminating or preventing acne” (Excalibur Pharmaceuticals, Inc., priority 2012, dated 2023)

How the values were obtained:
Format in all cases: cell-based
[1] = tested on: collection microorganisms; assay: Microbial challenge studies at the Universidad Nacional Autónoma de México, summary
Protocol: (§1) Various antimicrobial challenges have been studied in various institutions in order to evaluate the efficacy of M-DDO [Pirfenidone and M-DDO] against the most frequent microorganisms susceptible to develop resistance and against some microorganisms that may cause grater problem with regard to their eradication because of spore production.
(§2) The initial challenges are conducted with collection microorganisms universally requested for evidencing the efficacy of a product. […] Moreover, results of studies conducted by a company authorized by the authorities to perform challenge studies show results that are similar to the results obtained in the test conducted at UNAM, UAEM and in our laboratory (Grupo Medifarma)(Tables 1, 2 and 3).

[2] = tested on: microorganisms isolated from hospitalized patients; assay: Challenges with microorganisms isolated from hospitalized patients, summary; settings: 30 second contact
Protocol: (§3) A second type of challenges were performed at the Universidad Autónoma del Estado de Morelos with microorganisms collected from hospitalized patients and thus said microorganisms had already been in contact with antimicrobial agents and could show resistance (Table 4).

Salmonella typhi CA-C001 = assay: Microbial challenge, UNAM; settings: contact time 30 seconds
From the text: (§4) Tables 1, 2, 3 and 4 (shown hereinafter) present the information obtained after conducting microbiological tests, also known as antimicrobial challenge, of M-DDO against various bacteria, showing its powerful anti-bacterial capacity. Moreover, Table 5 (shown hereinafter) presents the results of M-DDO against Propionibacterium acnes.
as §1, §2

[3] = tested on: Candida albicans ATCC 10231; assay: Microbial challenge, ARj.; settings: contact time 30 seconds
From the text: as §4, §1, §2

[4] = tested on: Klebsiella pneumoniae ATCC 10031; assay: Microbial challenge, ARj.; settings: contact time 30 seconds
From the text: as §4, §1, §2

[5] = tested on: Staphylococcus epidermidis ATCC 12228; assay: Microbial challenge, Grupo Medifarma; settings: contact time 30 seconds
From the text: as §4, §1, §2

[6] = tested on: Escherichia coli ATCC 10536; assay: Microbial challenge, Grupo Medifarma; settings: contact time 30 seconds
From the text: as §4, §1, §2

[7] = tested on: Candida albicans ATCC 10231; assay: Microbial challenge, Grupo Medifarma; settings: contact time 30 seconds
From the text: as §4, §1, §2

[8] = tested on: Pseudomonas aeruginosa ATCC 9027; assay: Microbial challenge, Grupo Medifarma; settings: contact time 30 seconds
From the text: as §4, §1, §2

[9] = tested on: Staphylococcus aureus ATCC 6538; assay: Microbial challenge, Grupo Medifarma; settings: contact time 30 seconds
From the text: as §4, §1, §2

[10] = tested on: Escherichia coli ATCC 11229; assay: Microbial challenge, Grupo Medifarma; settings: contact time 30 seconds
From the text: as §4, §1, §2

[11] = tested on: Proteus vulgaris ATCC 6380; assay: Microbial challenge, Grupo Medifarma; settings: contact time 30 seconds
From the text: as §4, §1, §2

[12] = tested on: Klebsiella pneumoniae ATCC 10031; assay: Microbial challenge, Grupo Medifarma; settings: contact time 30 seconds
From the text: as §4, §1, §2

Enterobacter cloacae = assay: Challenge with microorganisms collected from hospitalized patients, Universidad Autónoma del Estado de Morelos; settings: contact time 30 seconds; isolate from hospitalized patients; UAEM
Protocol: as §4, §3

Enterobacter faecalis = assay: as above; settings: contact time 30 seconds; isolate from hospitalized patients; UAEM
Protocol: as §4, §3

Salmonella enteritidis = assay: as above; settings: contact time 30 seconds; isolate from hospitalized patients; UAEM
Protocol: as §4, §3

Staphylococcus aureus = assay: as above; settings: contact time 30 seconds; isolate from hospitalized patients; UAEM
Protocol: as §4, §3

Salmonella typhi = assay: as above; settings: contact time 30 seconds; isolate from hospitalized patients; UAEM
Protocol: as §4, §3

Serratia marcenses = assay: as above; settings: contact time 30 seconds; isolate from hospitalized patients; UAEM
Protocol: as §4, §3

Escherichia coli = assay: as above; settings: contact time 30 seconds; isolate from hospitalized patients; UAEM
Protocol: as §4, §3

Propionibacterium acnes = assay: Antimicrobial action of Pirfenidone and M-DDO gel
From the text: as §4

[1,2-diallyl-1-(5-methyl-tetrahydro-2H-pyran-2-yloxy)disulfonium]+6-[(benzyl, methyl, octylammonium) (hydroxymethylamin)(methylamin)]-tetrahydro-2H-pyran-3-oxy] chloride [M-DDO]
elimination of the microbial charge [1]: 99.999%
reduction of the microbial charge [2]: at least 99.17%
elimination of the microbial charge (Salmonella typhi CA-C001): 99.999%
elimination of the microbial charge [3]: 100%
elimination of the microbial charge [4]: 100%
elimination of microorganisms [5]: 100%
elimination of microorganisms [6]: 100%
elimination of microorganisms [7]: 100%
elimination of microorganisms [8]: 100%
elimination of microorganisms [9]: 100%
elimination of microorganisms [10]: 100%
elimination of microorganisms [11]: 100%
elimination of microorganisms [12]: 100%
reduction of the microbial charge (Enterobacter cloacae): 100%
reduction of the microbial charge (Enterobacter faecalis): 99.972%
reduction of the microbial charge (Salmonella enteritidis): 100%
reduction of the microbial charge (Staphylococcus aureus): 99.999%
reduction of the microbial charge (Salmonella typhi): 99.170%
reduction of the microbial charge (Serratia marcenses): 100%
reduction of the microbial charge (Escherichia coli): 99.961%
Percentage of reduction of bacteria viability (%) (Propionibacterium acnes; exposition time 30 sec): 99.999%
Percentage of reduction of bacteria viability (%) (Propionibacterium acnes; exposition time 60 sec): 99.999%
Percentage of reduction of bacteria viability (%) (Propionibacterium acnes; exposition time 15 min): 100%
